“And” between values parts separate entries of the source, which are not always exact repeats. Equal entries are not always repeated.
How the values were obtained:
[1] = test system: Escherichia coli (ATCC 10535); test: Microbicidal activity, European Standard EN1040 suspension test; format: cell-based; conditions: for E. coli cfu/mL (residual cell count): room temperature
Method: (§1) Microbicidal activity of different anionic siloxanes with carboxyl groups is tested according to European Standard EN1040. A bacterial suspension with a cell count of about 10^7 cfu/ml (cfu stands for colony-forming units) is contacted with appropriate concentrations of the specific substances and the residual cell count is determined after incubation times of 5 and 30 min. at room temperature under continuos stirring. Staphylococcus aureus (ATCC 5638, American Type Culture Collection, Manassas, USA) is tested as gram+ (gram positive) and Escherichia coli (ATCC 10535, American Type Culture Collection) as gram-organism. The results are given as a log reduction at each incubation time in comparison to a water control in the following tables (a) and (b): […]

[2] = test system: Staphylococcus aureus (ATCC 5638); test: as above; format: cell-based; conditions: for S. aureus cfu/mL (residual cell count): room temperature
Method: as §1

[3] = test system: Aspergillus niger (DSM 1957/ATCC 6275); test: Fungicidal activity, European Standard EN12175 spore suspension test; format: cell-based; conditions: test conc. 1%; for log reduction A. niger: vs water control
Method: (§2) Fungicidal activity is tested according to European Standard EN12175. A fungal spore suspension with a spore cell count of about 10^6 cfu/ml is contacted with appropriate concentrations of the specific substances (Examples) mentioned in the tables below and the residual spore cell count is determined after incubation times of 30 and 60 min at room temperature under continuous stirring. Penicillium funiculosum (DSM 1960), Aspergillus niger (DSM 1957/ATCC 6275) and Aureobasidium pullulans (DSM 2404) are tested as important mold strains. DSM refers to microorganisms obtainable under the numbers given at the DSMZ (Deutsche Sammlung von Mikroorganismen and Zellkulturen GmbH, Braunschweig, Germany). ATCC numbers refer to organisms obtainable from the American Type Culture Collection (see Example 6). The results are given as a log reduction at each incubation time in comparison to a water control in table (d): […]

[4] = test system: Aureobasidium pullulans (DSM 2404); test: as above; format: cell-based; conditions: test conc. 1%; for log reduction A. pull.: vs water control
Method: as §2

[5] = test system: Penicillium funiculosum (DSM 1960); test: as above; format: cell-based; conditions: test conc. 1%; for log reduction P. funic.: vs water control
Method: as §2

[6] = test system: Staphylococcus aureus cells; test: Antiadhesive efficacy on coated PMMA test specimen, antibody colorimetric assay; format: cell-based; conditions: specimen coated from 0.50% solution in EtOH; S. aureus suspension 1 hour at 30°
Method: The antiadhesive efficacy (inhibition of adhesion of microorganisms) is tested after temporarily attaching various compounds to PMMA test specimen by incubation of the test specimen in a 0.5% solution in ethanol. The coated specimen are then dried and afterwards incubated in a suspension of Staphylococcus aureus cells for 1 hour at 30° under shaking. After some washing steps, the attached cells are detected via binding of a primary antibody and—after incubation of night and again washing steps—binding of a secondary antibody with alkaline phosphatase attached. The adhesion is then determined in a colorimetric assay in comparison to an untreated PMMA test specimen, which is calculated as showing 100% adhesion.

S. aureus ATCC 6538 = test: Antibacterial efficacy on treated polypropylene non-woven, modified AATCC-100; format: cell-based, Staphylococcus aureus
Method: (§3) A solution of Example 1 in a solvent (tetrahydrofurane and/or acetone) is prepared with a concentration of 1 or 2% of the compound of Example 1. This solution is sonicated for 1 min to ensure complete dissolution of the test acid compound. Then polypropylene non-woven (10×10 cm) is dipped into the solution (100 ml) and left under sonication for 1 min. The non-woven is taken out of the solution and dried on air at room temperature for some hours. This non-woven is then used for microbial testing as follows:
(§4) The efficacy of Example 1 is tested after application onto polypropylene non-woven material according to a modified AATCC-100 standard for assessing antibacterial activity on textiles. Overnight cultures of two test bacteria are contacted with the treated non-woven material by pipetting a diluted suspension onto the surface of the material. The non-woven is then incubated for 24 hours at 37° C., and then the cell count is determined by elution of the materials into a neutralizing medium, dilution series and plate count technique. As in the basic test for microbicidal activity (Example 6), Staphylococcus aureus is used as the gram+ and Escherichia coli as the gram-organism.
(§5) The results are given in tables (f) and (g) as cell count directly after inoculation and after 24 hours incubation time in comparison to an untreated polypropylene non-woven as the blank.

E. coli ATCC 10536 = test: as above; format: cell-based, Escherichia coli
Method: as §3, §4, §5

[7] = 1% in EtOH (ethanolic stock solution), 5 min
[8] = 1% in EtOH (ethanolic stock solution), 30 min
[9] = 1% in H2O (stock solution in water), 5 min
[10] = 1% in H2O (stock solution in water), 30 min
[11] = test concentration 1%, 5 min, vs water control
[12] = test concentration 1%, 30 min, vs water control
[13] = test concentration 1000 ppm, 5 min
[14] = test concentration 1000 ppm, 30 min

C[Si]1(CCCC(CC(=O)O)C(=O)O)O[Si](C)(CCCC(CC(=O)O)C(=O)O)O[Si](C)(CCCC(CC(=O)O)C(=O)O)O[Si](C)(CCCC(CC(=O)O)C(=O)O)O1 (centres unmarked) [Example 1]
E. coli cfu/mL [1, 7]: 1.37E+06 cfu/mL
log reduction E. coli [1, 7]: 1.2
E. coli cfu/mL [1, 8]: 0.00E+00 cfu/mL
log reduction E. coli [1, 8]: >5
E. coli cfu/mL [1, 9]: 4.62E+06 cfu/mL and 5.03E+06 cfu/mL
log reduction E. coli [1, 9]: <1
E. coli cfu/mL [1, 10]: 1.97E+06 cfu/mL and 2.09E+06 cfu/mL
log reduction E. coli [1, 10]: 1.1
E. coli cfu/mL (residual cell count) ([1]; test concentration 1%, 5 min): 0.00E+00 cfu/mL
log reduction E. coli [1, 11]: >5
E. coli cfu/mL (residual cell count) ([1]; test concentration 1%, 30 min): 0.00E+00 cfu/mL
log reduction E. coli [1, 12]: >5
S. aureus cfu/mL [2, 7]: 3.45E+06 cfu/mL
log reduction S. aureus [2, 7]: 1
S. aureus cfu/mL [2, 8]: 1.10E+04 cfu/mL
log reduction S. aureus [2, 8]: 3.3
S. aureus cfu/mL [2, 9]: 6.98E+06 cfu/mL and 8.19E+06 cfu/mL
log reduction S. aureus [2, 9]: <1
S. aureus cfu/mL [2, 10]: 9.55E+05 cfu/mL and 1.12E+06 cfu/mL
log reduction S. aureus [2, 10]: 1.3
S. aureus cfu/mL (residual cell count) ([2]; test concentration 1%, 5 min): 1.20E+04 cfu/mL
log reduction S. aureus [2, 11]: 3.1
S. aureus cfu/mL (residual cell count) ([2]; test concentration 1%, 30 min): 0.00E+00 cfu/mL
log reduction S. aureus [2, 12]: >5
A. niger cfu/mL (residual spore cell count) ([3]; 30 min): 1.1E+06 cfu/mL
log reduction A. niger ([3]; 30 min): <1
A. niger cfu/mL (residual spore cell count) ([3]; 1 h): 1.2E+06 cfu/mL
log reduction A. niger ([3]; 1 h): <1
A. pull. cfu/mL (residual spore cell count) ([4]; 30 min): 2.1E+05 cfu/mL
log reduction A. pull. ([4]; 30 min): <1
A. pull. cfu/mL (residual spore cell count) ([4]; 1 h): 2.2E+05 cfu/mL
log reduction A. pull. ([4]; 1 h): <1
P. funic. cfu/mL (residual spore cell count) ([5]; 30 min): 4.0E+06 cfu/mL
log reduction P. funic. ([5]; 30 min): <1
P. funic. cfu/mL (residual spore cell count) ([5]; 1 h): 3.8E+06 cfu/mL
log reduction P. funic. ([5]; 1 h): <1
results on PMMA (adhesion; untreated PMMA = 100% adhesion) [6]: 85%
activity against S. aureus (in words) (S. aureus ATCC 6538; applied at 2%): full activity
activity against S. aureus (in words) (S. aureus ATCC 6538; non-woven treated with 1%): some but inconsistent activity
S. aureus cell count, 24 hours (S. aureus ATCC 6538; polypropylene nonwoven treated with 2% solution, 24 hours at 37° C.): <100 cfu/sample
activity against E. coli (in words) (E. coli ATCC 10536; applied at 2%): high activity
activity against E. coli (in words) (E. coli ATCC 10536; non-woven treated with 1%): no activity

C[Si]1(CCCP(=O)(O)O)O[Si](C)(CCCP(=O)(O)O)O[Si](C)(CCCP(=O)(O)O)O[Si](C)(CCCP(=O)(O)O)O1 (centres unmarked) [Example 2]
E. coli cfu/mL [1, 13]: 1.50E+04 cfu/mL
log reduction E. coli [1, 13]: 3.2
E. coli cfu/mL [1, 14]: 0.00E+00 cfu/mL
log reduction E. coli [1, 14]: >5
S. aureus cfu/mL [2, 13]: 1.42E+03 cfu/mL
log reduction S. aureus [2, 13]: 4.3
S. aureus cfu/mL [2, 14]: 0.00E+00 cfu/mL
log reduction S. aureus [2, 14]: >5

C[Si](C)(C)O[Si](C)(C)O[Si](C)(CCCC(CC(=O)O)C(=O)O)O[Si](C)(C)C (centres unmarked) [Example 4]
E. coli cfu/mL (residual cell count) ([1]; test concentration 1%, 5 min): 1.03E+05 cfu/mL
log reduction E. coli [1, 11]: 2.3
E. coli cfu/mL (residual cell count) ([1]; test concentration 1%, 30 min): 0.00E+00 cfu/mL
log reduction E. coli [1, 12]: >5
S. aureus cfu/mL (residual cell count) ([2]; test concentration 1%, 5 min): 3.22E+06 cfu/mL
log reduction S. aureus [2, 11]: <1
S. aureus cfu/mL (residual cell count) ([2]; test concentration 1%, 30 min): 1.67E+04 cfu/mL
log reduction S. aureus [2, 12]: 2.9
A. niger cfu/mL (residual spore cell count) ([3]; 30 min): 1.5E+04 cfu/mL
log reduction A. niger ([3]; 30 min): 2.0
A. niger cfu/mL (residual spore cell count) ([3]; 1 h): 1.3E+04 cfu/mL
log reduction A. niger ([3]; 1 h): 2.1
A. pull. cfu/mL (residual spore cell count) ([4]; 30 min): 1.3E+05 cfu/mL
log reduction A. pull. ([4]; 30 min): <1
A. pull. cfu/mL (residual spore cell count) ([4]; 1 h): 9.0E+04 cfu/mL
log reduction A. pull. ([4]; 1 h): <1
P. funic. cfu/mL (residual spore cell count) ([5]; 30 min): 4.8E+05 cfu/mL
log reduction P. funic. ([5]; 30 min): 1.0
P. funic. cfu/mL (residual spore cell count) ([5]; 1 h): 1.14E+05 cfu/mL
log reduction P. funic. ([5]; 1 h): 1.6
results on PMMA (adhesion; untreated PMMA = 100% adhesion) [6]: 46%

C[Si](C)(CCCC(CC(=O)O)C(=O)O)O[Si](C)(C)O[Si](C)(C)O[Si](C)(C)O[Si](C)(C)O[Si](C)(C)O[Si](C)(C)O[Si](C)(C)O[Si](C)(C)O[Si](C)(C)O[Si](C)(C)O[Si](C)(C)CCCC(CC(=O)O)C(=O)O (centres unmarked) [Example 5]
E. coli cfu/mL (residual cell count) ([1]; test concentration 1%, 5 min): 1.54E+07 cfu/mL
log reduction E. coli [1, 11]: <1
E. coli cfu/mL (residual cell count) ([1]; test concentration 1%, 30 min): 3.58E+06 cfu/mL
log reduction E. coli [1, 12]: <1
S. aureus cfu/mL (residual cell count) ([2]; test concentration 1%, 5 min): 1.34E+07 cfu/mL
log reduction S. aureus [2, 11]: <1
S. aureus cfu/mL (residual cell count) ([2]; test concentration 1%, 30 min): 7.86E+06 cfu/mL
log reduction S. aureus [2, 12]: <1
A. niger cfu/mL (residual spore cell count) ([3]; 30 min): 7.0E+05 cfu/mL
log reduction A. niger ([3]; 30 min): <1
A. niger cfu/mL (residual spore cell count) ([3]; 1 h): 6.0E+05 cfu/mL
log reduction A. niger ([3]; 1 h): <1
A. pull. cfu/mL (residual spore cell count) ([4]; 30 min): 3.5E+05 cfu/mL
log reduction A. pull. ([4]; 30 min): <1
A. pull. cfu/mL (residual spore cell count) ([4]; 1 h): 3.4E+05 cfu/mL
log reduction A. pull. ([4]; 1 h): <1
P. funic. cfu/mL (residual spore cell count) ([5]; 30 min): 2.5E+06 cfu/mL
log reduction P. funic. ([5]; 30 min): <1
P. funic. cfu/mL (residual spore cell count) ([5]; 1 h): 2.7E+06 cfu/mL
log reduction P. funic. ([5]; 1 h): <1
results on PMMA (adhesion; untreated PMMA = 100% adhesion) [6]: 50%

Reference: patent US20100234323A1, “Antimicrobial Acids and Salts” (priority 2006, published 2010)
